Laboratory results as given in PMC10313671, “Accelerating the prediction and discovery of peptide hydrogels with human-in-the-loop” (Nature Communications, 2023).
Where a SMILES comes first, the peptide text is derived from it.

Columns and labels:
[1] = Peptide hydrogel formation, vial-inverting method; format: physicochemical; design: key to EXP / GELATION: 0: no hydrogel; 1: hydrogel; conditions: for State: ultrasonication, standing 48 h; for Concentration: concentration at which the state was recorded: lowest of 30, 60, 90, 120 mM that gave a gel, 120 mM for non-gelating peptides; for GELATION: 1 = hydrogel, 0 = no hydrogel
Summary of the method: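 Tetrapeptides dissolved in ultrapure water at 30 mM, pH brought to 6.5–8.5 with 1 N NaOH stepwise with brief ultrasonication, then left 48 h. Gel defined as self-supporting and non-flowing on vial inversion; non-gelling peptides retested at 60, 90 and 120 mM.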

[2] = Transmission electron microscope (negative staining) of peptide assemblies; conditions: TEM, negative staining with uranyl acetate, 120 kV
Procedure: We used the negative staining technique to observe the morphologies formed by peptides. A micropipette was used to load 10 μL of sample solution to a carbon-coated copper grid, and we used a piece of filter paper to remove the excess solution. After rinsing the grid with the deionized water, we used uranyl acetate to stain the sample for 1 minute and then rinsed the grid with deionized water again.

[3] = 30 mM peptide in ultrapure water, pH adjusted to 6.5-8.5 with 1 N NaOH, vial-inverting method, concentration raised 30/60/90/120 mM until gelation
[4] = peptide concentration 30 mM, vial-inverting method
[5] = 60 mM peptide in ultrapure water, pH 6.5-8.5 (1 N NaOH), vial-inverting method, no gel at 30 mM
[6] = peptide concentration 60 mM, vial-inverting method
[7] = 120 mM peptide (highest tested) in ultrapure water, pH 6.5-8.5 (1 N NaOH), vial-inverting method, precipitate, sol, suspension = no gel
[8] = peptide concentration 120 mM, vial-inverting method

Row | Compound | Concentration [1] [µM] | State [1, 7] | GELATION [1, 8] | Morphology ([2]; line of the table gives 120 mM) | also measured
1 | N[C@@H](CS)C(=O)N[C@@H](Cc1c[nH]cn1)C(=O)N[C@@H](Cc1ccccc1)C(=O)N[C@@H](Cc1c[nH]c2ccccc12)C(=O)O [CHFW] (H-CHFW-OH) | 30000 | – | – | – | State [1, 3]: gel; GELATION [1, 4]: 1; Morphology ([2]; line of the table gives 30 mM): sphere
2 | CC[C@H](C)[C@H](NC(=O)[C@@H](N)CC(C)C)C(=O)N[C@@H](CCC(=O)O)C(=O)N[C@@H](CCSC)C(=O)O [LIEM] (H-LIEM-OH) | 90000 | – | – | – | State ([1]; 90 mM peptide in ultrapure water, pH 6.5-8.5 (1 N NaOH), vial-inverting method, no gel at lower concentrations): gel; GELATION ([1]; peptide concentration 90 mM, vial-inverting method): 1; Morphology ([2]; line of the table gives 90 mM): hybrid(sheet+fibre)
3 | CC[C@H](C)[C@H](NC(=O)[C@@H](NC(=O)[C@@H](N)CC(N)=O)[C@@H](C)O)C(=O)N[C@@H](Cc1ccccc1)C(=O)O [NTIF] (H-NTIF-OH) | 60000 | – | – | – | State [1, 5]: gel; GELATION [1, 6]: 1; Morphology ([2]; line of the table gives 60 mM): fibre
4 | CC[C@H](C)[C@H](NC(=O)[C@@H](NC(=O)[C@@H](N)CC(C)C)C(C)C)C(=O)N[C@@H](Cc1ccc(O)cc1)C(=O)O [LVIY] (H-LVIY-OH) | 120000 | gel | 1 | sheet | –
5 | CC(C)C[C@H](N)C(=O)N[C@@H](Cc1c[nH]c2ccccc12)C(=O)N[C@@H](Cc1c[nH]c2ccccc12)C(=O)N[C@@H](Cc1ccccc1)C(=O)O [LWWF] (H-LWWF-OH) | 30000 | – | – | – | State [1, 3]: gel; GELATION [1, 4]: 1; Morphology ([2]; line of the table gives 30 mM): aggregates
6 | CC(C)C[C@H](N)C(=O)N[C@@H](Cc1c[nH]c2ccccc12)C(=O)N[C@@H](Cc1ccccc1)C(=O)N[C@@H](Cc1c[nH]c2ccccc12)C(=O)O [LWFW] (H-LWFW-OH) | 30000 | – | – | – | State [1, 3]: gel; CONCENTRATION (at which the hydrogel formed) ([1]; hydrogel-forming peptides only, vial-inverting method): 30000 µM; GELATION [1, 4]: 1; Morphology ([2]; line of the table gives 30 mM): sphere
7 | CC[C@H](C)[C@H](N)C(=O)N[C@@H](CCSC)C(=O)N[C@H](C(=O)N[C@H](C(=O)O)C(C)C)C(C)C [IMVV] (H-IMVV-OH) | 30000 | – | – | – | State [1, 3]: gel; GELATION [1, 4]: 1; hydrogel formation (in words) ([1]; vial-inverting method, representative hydrogels pH between 7.0 to 7.5): can form hydrogel; Morphology ([2]; line of the table gives 30 mM): aggregates
8 | N[C@@H](CO)C(=O)N[C@@H](CO)C(=O)N[C@@H](Cc1ccccc1)C(=O)N[C@@H](Cc1ccccc1)C(=O)O [SSFF] (H-SSFF-OH) | 30000 | – | – | – | State [1, 3]: gel; GELATION [1, 4]: 1; Morphology ([2]; line of the table gives 30 mM): fibre
9 | O=C(O)[C@H](Cc1ccc(O)cc1)NC(=O)[C@H](Cc1c[nH]c2ccccc12)NC(=O)[C@H](Cc1c[nH]c2ccccc12)NC(=O)[C@@H]1CCCN1 [PWWY] (H-PWWY-OH) | 120000 | sol | 0 | aggregates | –
10 | CC(C)[C@H](N)C(=O)N[C@@H](CO)C(=O)N[C@@H](Cc1c[nH]c2ccccc12)C(=O)N[C@@H](Cc1ccc(O)cc1)C(=O)O [VSWY] (H-VSWY-OH) | 120000 | precipitate | 0 | particle | –
11 | N[C@@H](CO)C(=O)N[C@@H](CO)C(=O)N[C@@H](CO)C(=O)N[C@@H](CO)C(=O)O [SSSS] (H-SSSS-OH) | 120000 | suspension | 0 | blank | –
12 | CC[C@H](C)[C@H](N)C(=O)N[C@H](C(=O)N[C@H](C(=O)N[C@@H](Cc1ccc(O)cc1)C(=O)O)[C@@H](C)CC)C(C)C [IVIY] (H-IVIY-OH) | 60000 | – | – | – | State [1, 5]: gel; GELATION [1, 6]: 1; Morphology ([2]; line of the table gives 60 mM): aggregates
13 | NCCCC[C@H](NC(=O)[C@H](CCCCN)NC(=O)[C@H](CCCCN)NC(=O)[C@@H](N)CCCCN)C(=O)O [KKKK] (H-KKKK-OH) | 120000 | sol | 0 | blank | –
14 | CSCC[C@H](NC(=O)[C@@H](N)CCCCN)C(=O)N[C@@H](CC(C)C)C(=O)N[C@@H](Cc1ccccc1)C(=O)O [KMLF] (H-KMLF-OH) | 120000 | suspension | 0 | aggregates | –
15 | CSCC[C@H](NC(=O)[C@@H]1CCCN1)C(=O)N[C@@H](Cc1ccccc1)C(=O)N[C@@H](Cc1ccc(O)cc1)C(=O)O [PMFY] (H-PMFY-OH) | 60000 | – | – | – | State [1, 5]: gel; GELATION [1, 6]: 1; Morphology ([2]; line of the table gives 60 mM): sheet
16 | CC(C)C[C@H](N)C(=O)N[C@@H](CO)C(=O)N[C@@H](Cc1ccccc1)C(=O)N[C@@H](Cc1c[nH]c2ccccc12)C(=O)O [LSFW] (H-LSFW-OH) | 60000 | – | – | – | State [1, 5]: gel; GELATION [1, 6]: 1; Morphology ([2]; line of the table gives 60 mM): hybrid(sphere+fibre)
17 | NCCCC[C@H](NC(=O)[C@H](CCCCN)NC(=O)[C@H](CCC(=O)O)NC(=O)[C@@H](N)CCC(=O)O)C(=O)O [EEKK] (H-EEKK-OH) | 120000 | sol | 0 | blank | –
18 | C[C@H](N)C(=O)N[C@@H](C)C(=O)N[C@@H](C)C(=O)N[C@@H](C)C(=O)O [AAAA] (H-AAAA-OH) | 120000 | sol | 0 | blank | –
19 | C[C@@H](O)[C@H](N)C(=O)NCC(=O)N[C@@H](Cc1ccccc1)C(=O)N[C@@H](Cc1ccccc1)C(=O)O [TGFF] (H-TGFF-OH) | 120000 | gel | 1 | aggregates | –
20 | NCCCC[C@H](NC(=O)[C@@H](N)Cc1ccccc1)C(=O)N[C@@H](Cc1ccccc1)C(=O)N[C@@H](Cc1c[nH]c2ccccc12)C(=O)O [FKFW] (H-FKFW-OH) | 60000 | – | – | – | State [1, 5]: gel; GELATION [1, 6]: 1; Morphology ([2]; line of the table gives 60 mM): fibre
21 | CSCC[C@H](NC(=O)[C@@H](N)CCC(N)=O)C(=O)N[C@H](C(=O)N[C@H](C(=O)O)C(C)C)C(C)C [QMVV] (H-QMVV-OH) | 120000 | gel | 1 | aggregates | –
22 | CC[C@H](C)[C@H](N)C(=O)N[C@@H](CCCNC(=N)N)C(=O)N[C@H](C(=O)N[C@@H](Cc1c[nH]c2ccccc12)C(=O)O)C(C)C [IRVW] (H-IRVW-OH) | 120000 | suspension | 0 | sphere | –
23 | CC(C)[C@H](N)C(=O)N[C@H](C(=O)N[C@H](C(=O)N[C@H](C(=O)O)C(C)C)C(C)C)C(C)C [VVVV] (H-VVVV-OH) | 60000 | – | – | – | State [1, 5]: gel; GELATION [1, 6]: 1; Morphology ([2]; line of the table gives 60 mM): sheet
24 | CC(C)C[C@H](NC(=O)[C@@H](NC(=O)[C@@H](N)CC(C)C)[C@@H](C)O)C(=O)N[C@@H](Cc1ccccc1)C(=O)O [LTLF] (H-LTLF-OH) | 30000 | – | – | – | State [1, 3]: gel; GELATION [1, 4]: 1; Morphology ([2]; line of the table gives 30 mM): sheet
25 | CSCC[C@H](NC(=O)[C@H](CCSC)NC(=O)[C@H](CCSC)NC(=O)[C@@H](N)CCSC)C(=O)O [MMMM] (H-MMMM-OH) | 120000 | gel | 1 | hybrid(sphere+fibre) | –
26 | CC(C)C[C@H](NC(=O)[C@H](CC(C)C)NC(=O)[C@@H](N)CC(C)C)C(=O)N[C@@H](CO)C(=O)O [LLLS] (H-LLLS-OH) | 30000 | – | – | – | State [1, 3]: gel; GELATION [1, 4]: 1; Morphology ([2]; line of the table gives 30 mM): sheet
